Experimental data reported in ChEMBL document CHEMBL5096239, “Two Binding Sites of SARS-CoV-2 Macrodomain 3 Probed by Oxaprozin and Meclomen” (J Med Chem, 2022).
Active and inactive are the calls of the source. The rule behind the calls is not given here.

Legend:
[1] = biological target: T1, Replicase polyprotein 1ab (Severe acute respiratory syndrome coronavirus 2, UniProt P0DTD1); assay: Binding affinity to 15N-labelled His6-tagged SARS-CoV-2 Mac3 (551 to 675 residues) expressed in Escherichia coli Rosetta assessed as chemical shift perturbations by NMR HSQC spectral analysis
[2] = biological target: Replicase polyprotein 1ab (Severe acute respiratory syndrome coronavirus 2) (UniProt P0DTD1); assay: Binding affinity to 15N-labelled His6-tagged SARS-CoV-2 Mac3 (551 to 675 residues) expressed in Escherichia coli Rosetta assessed as chemical shift perturbations at binding site I (M630, Y634, V635, T636, and S660 residues) at ligand to protein molar ratio of 4:1 by NMR HSQC spectral analysis
Replicase polyprotein 1a = Replicase polyprotein 1a (Severe acute respiratory syndrome-related coronavirus, UniProt P0C6U8); assay: Binding affinity to 15N-labelled His6-tagged SARS-CoV Mac3 (527 to 652 residue) expressed in Escherichia coli Rosetta assessed as chemical shift perturbations by NMR HSQC spectral analysis
[3] = biological target: Replicase polyprotein 1a (Severe acute respiratory syndrome-related coronavirus) (UniProt P0C6U8); assay: Binding affinity to 15N-labelled His6-tagged SARS-CoV Mac3 (527 to 652 residue) expressed in Escherichia coli Rosetta assessed as chemical shift perturbations at binding site 1 (1556, T559, M606, T612, S636, and S637 residues) by NMR HSQC spectral analysis
[4] = biological target: T1, Replicase polyprotein 1ab; assay: Displacement of carboxyfluorescein-labelled p53-(dG)14 from SARS-CoV-2 Mac3 by fluorescence polarization analysis
[5] = biological target: T1, Replicase polyprotein 1ab; assay: Displacement of carboxyfluorescein-labelled bbc3-(dG)14 from SARS-CoV-2 Mac3 by fluorescence polarization analysis
[6] = biological target: Replicase polyprotein 1ab (Severe acute respiratory syndrome coronavirus 2) (UniProt P0DTD1); assay: Binding affinity to 15N-labelled His6-tagged SARS-CoV-2 Mac3 (551 to 675 residues) expressed in Escherichia coli Rosetta assessed as chemical shift perturbations at binding site II (Q594, E595, S609, and M630 residues) at ligand to protein molar ratio of 4:1 by NMR HSQC spectral analysis
[7] = biological target: Replicase polyprotein 1a (Severe acute respiratory syndrome-related coronavirus) (UniProt P0C6U8); assay: Binding affinity to 15N-labelled His6-tagged SARS-CoV Mac3 (527 to 652 residue) expressed in Escherichia coli Rosetta assessed as chemical shift perturbations at binding site 1 (C550, V553, 1556, and M606 residues) by NMR HSQC spectral analysis

| SMILES | Kd [1] | Activity [2] | Kd (Replicase polyprotein 1a) | Activity [3] | Ki [4] | Ki [5] | Activity [6] | Activity [7] |
| --- | --- | --- | --- | --- | --- | --- | --- | --- |
| Cc1ccc(Cl)c(Nc2ccccc2C(=O)O)c1Cl [MECLOFENAMIC ACID] | 900 µM | Active | 220 µM | Active | 200 µM | 50 µM |  |  |
| O=C(O)CCc1nc(-c2ccccc2)c(-c2ccccc2)o1 [OXAPROZIN] | 1200 µM |  | 1000 µM |  | 900 µM | 400 µM | Active | Active |
